Data set [1] in a line: Acute toxicity (LD50) in mice. Set-up: species or system mouse (male, dd strain). Particulars: in vivo, mouse, observed one week. On the procedure:
(§1) The LD50 is calculated according to the method of Litchfield and Wilcoxon [J. of Pharmacol. and Exper. Therap., 96, 99 (1949)]. Male mice of the dd strain weighing 19-21 g and male rats of the Wistar strain weighing 80-100 g are used. One group consists of 10 mice or 10 rats. The compound of formula (I) and pentazocine are administered subcutaneously or orally to the test animals which are observed for one week.

The nature of data set [2]: Acute toxicity (LD50) in rats. Set-up: species or system rat (male, Wistar strain). The note with it: in vivo, rat, observed one week. On the procedure: as §1
Data set [3] deals with male mice of the dd strain. The experiment in a line: Analgesic activity by acetic acid writhing method. The format is in vivo, mouse (male. Particulars: mouse. On the procedure:
(I) Analgesic activity by acetic acid writhing method:
The experiment is carried out according to the method of Koster et al [Fed. Proc., 18, 412 (1959)].
Male mice of the dd strain weighing 19-21 g are used in groups, each consisting of 10 mice. The test compounds, i.e. the compound of formula (I), pentazocine and morphine are administered subcutaneously or orally to the test mice. Immediately after this, 0.2 ml of a 0.7% (v/v) aqueous solution of acetic acid is administered intraperitoneally to the test mice except those which has been administered orally with morphine, to which 0.2 ml of a 0.7% (v/v) aqueous solution of acetic acid is administered intraperitoneally at 15 minutes after a morphine administration. […] At 10 minutes after the administration of acetic acid, the number of writhes is counted for 10 minutes. […] ED50 is calculated according to the method of Litchfield and Wilcoxon [J. Pharmacol. & Exper. Therap., 96, 99 (1949)].

The test system of data set [4] is male mice of the dd strain. The experiment in a line: animal or person. The format is in vivo, mouse (male. The note with it: tail flick, mouse, subcutaneous administration. On the procedure:
(II) Analgesic activity by Tail Flick method:
The experiment is carried out according to the method of Tail Flick (D'Amour-Smith method) [J. Pharmacol., 72, 74 (1941)].
A light beam of an infrared lamp (100 V; 250W) is passed through a hole having a diameter of a half inch and is irradiated onto the end of the tail of each mouse (male dd strain; weight: 19-21 g) to effect a heat stimulation. […] The compound of formula (I), pentazocine or morphine is administered subcutaneously to the mice. At 15, 30, 60, 90 and 120 minutes after the administration, the heat stimulation is repeatedly carried out to the mice in a similar manner to that described above and after each heat stimulation the time until the flick reaction occurs is measured. […] ED50 is calculated according to the above-mentioned method of Litchfield and Wilcoxon.

Data set [5] relates to male mice of the dd strain. Briefly: Analgesic activity by tail pinch method. The format is in vivo, mouse (male. The note with it: mouse. As to the method: (III) Analgesic activity by tail pinch method:
The experiment is carried out according to the method of H. Takagi et al [Jap. J. Pharmacol., 16, 287 (1966)].
In this experiment, male mice of the dd strain weighing 19-21 g are used in groups, each consisting of 10 mice. Before the experiment, animals which are sensitive to pressure stimulation are selected in the following manner.
The compound of formula (I), pentazocine or morphine is administered subcutaneously or orally to the selected mice. At 15, 30, 60, 90, and 120 minutes after the administration, an artery clip is repeatedly applied to the root of the tail of each mouse. […] ED50 is calculated according to the method of Litchfield and Wilcoxon [J. Pharmacol. & Exper. Therap., 96, 99 (1949)].

The subject of data set [6] is male rats of the Wistar strain. Briefly: Analgesic activity by bradykinin method. The format is in vivo, rat (male. Particulars: rat. As to the method: (IV) Analgesic activity by bradykinin method:
The experiment is carried out according to the method of Abe et al [Nihon Yakuri Gakkai Si (J. Japanese Pharmacological Academy) 67, 9 (1971)].
(§2) In this experiment, male rats of the Wistar strain weighing 210-260 g were used in groups, each consisting of 10 rats. A cannula is inserted into the right carotid artery of the rat anesthetized with ether. After recovering completely from ether anesthesis, 0.2 ml of a physiological salt solution containing bradykinin in an amount of about 2 μg/ml is injected retrogradely to the rat through the cannula. […] The compound of formula (I), pentazocine or morphine is administered subcutaneously or orally to the rat. At 15, 30, 60, 90 and 120 minutes after the administration of the test compound, bradykinin is injected repeatedly to the rat in a similar manner to that described above. […] ED50 is calculated according to the method of Litchfield and Wilcoxon [J. Pharmacol. & Exper. Therap., 96, 99 (1949 )].

The nature of data set [7]: Margin of safety (R = LD50/ED50), acetic acid writhing, mouse. The note with it: in vivo. As to the method:
as §1
Male mice of the dd strain weighing 19-21 g are used in groups, each consisting of 10 mice. The test compounds, i.e. the compound of formula (I), pentazocine and morphine are administered subcutaneously or orally to the test mice. Immediately after this, 0.2 ml of a 0.7% (v/v) aqueous solution of acetic acid is administered intraperitoneally to the test mice except those which has been administered orally with morphine, to which 0.2 ml of a 0.7% (v/v) aqueous solution of acetic acid is administered intraperitoneally at 15 minutes after a morphine administration. The mice of a control group are not administered with the test compounds but with only the acetic acid solution in a similar manner to that described above. At 10 minutes after the administration of acetic acid, the number of writhes is counted for 10 minutes. When the writhing numbers of the test group decrease to below 50% of the corresponding numbers of the control group, the test compound is determined to be analgesically active. ED50 is calculated according to the method of Litchfield and Wilcoxon [J. Pharmacol. & Exper. Therap., 96, 99 (1949)].
The usefulness of the compound as medicament is expressed by margin of safety (R) of the compound which is calculated by (LD50 /ED50). Compounds having higher R are deemed to be more useful as medicament than those having lower R. The margins of safety of the compound of formula (I) and pentazocine are shown in Table 6.
(Writhing tests count abdominal constrictions after an irritant is injected.)

The nature of data set [8]: Margin of safety (R = LD50/ED50), bradykinin, rat. The note with it: in vivo, sc, S.C. in rat. On the procedure: as §1, §2
The usefulness of the compound as medicament is expressed by margin of safety (R) of the compound which is calculated by (LD50 /ED50). […]

Data set [9] can be described thus: Analgesic activity compared with pentazocine (general statement). The format is in vivo. Particulars: in words.
Setting [10] is: sc, subcutaneous administration.
Setting [11] is: oral administration, read-out: ED50.
[12] abbreviates: sc, subcutaneous administration, read-out: ED50.

Read-outs that look alike come from different tables or passages of the source.

What is called LD50 is the dose expected to kill half of the subjects tested. What is called ED50 is the dose at which the effect has come halfway, by size or by number of responders. On to `C=C(C)CCN1CCC2(C)c3cc(O)ccc3CC1C2C` (stereo not drawn) [Compound of formula (I), 3-(3-methyl-3-butenyl)-1,2,3,4,5,6-hexahydro-6,11-dimethyl-8-hydroxy-2,6-methano-3-benzazocine], for which the LD50 at 168 h in data set [1] (setting [10]) was 80 mg/kg; in data set [1] (oral administration), 205 mg/kg; in [2] (setting [10]) it was 61 mg/kg; in [2] (oral administration), greater than 300 mg/kg. The ED50 in data set [3] (setting [11]) stood at 14.3 mg/kg; in data set [3] (setting [12]), 0.09 mg/kg; in [4] (sc, read-out: ED50), 0.76 mg/kg; in data set [5] (setting [11]), 29.3 mg/kg; in data set [5] (setting [12]), 0.51 mg/kg; in [6] (setting [11]) it was 35 mg/kg. Besides, in data set [6] (setting [12]), the ED50 was found to be 0.38 mg/kg. In addition, the selectivity ratio in data set [7] (po, P.O. in mouse) turned out to be 14.3; in [7] (sc, S.C. in mouse), 889; in [8] it was 161. Besides, in data set [9], the analgesic activity result is “unexpectedly a better analgesic activity than the known pentazocine”.

Turning to `CN1CC[C@]23c4c5ccc(O)c4O[C@H]2[C@@H](O)C=C[C@H]3[C@H]1C5` [Morphine, morphine], the ED50 in data set [3] (oral administration) was 5.1 mg/kg; in data set [3] (subcutaneous administration) it was 0.56 mg/kg; in data set [4] it was 5.2 mg/kg; in [5] (oral administration), 35.5 mg/kg; in data set [5] (subcutaneous administration), 3.5 mg/kg; in data set [6] (oral administration), 85 mg/kg. In data set [6] (subcutaneous administration), this compound showed an ED50 of 4.8 mg/kg.

Turning to `CC(C)=CCN1CCC2(C)c3cc(O)ccc3CC1C2C` (stereo not drawn) [Pentazocine, 3-(3-methyl-2-butenyl)-1,2,3,4,5,6-hexahydro-6,11-dimethyl-8-hydroxy-2,6-methano-3-benzazocine], the LD50 at 168 h in [1] (setting [10]) is 140 mg/kg; in [1] (oral administration), 305 mg/kg; in data set [2] (setting [10]), 165 mg/kg; in [2] (oral administration), greater than 400 mg/kg. For the same compound, the ED50 in [3] (setting [11]) is 82 mg/kg; in data set [3] (setting [12]), 3.45 mg/kg; in data set [4] (sc, read-out: ED50), greater than 40 mg/kg; in [5] (setting [11]), greater than 40 mg/kg; in data set [5] (setting [12]), greater than 40 mg/kg; in data set [6] (setting [11]), greater than 100 mg/kg. In [6] (setting [12]), the ED50 was determined as 10.5 mg/kg. The selectivity ratio is 3.7 in data set [7] (po, P.O. in mouse); 40.6 in [7] (sc, S.C. in mouse); 15.7 in data set [8].

Source of the values: patent publication US4126686A, “Analgesic 3-(3-methyl-3-butenyl)-1,2,3,4,5,6-hexahydro-6,11-dimethyl-8-hydroxy-2,6 -methano-3-benzazocine” (priority 1976, dated 1978).
